Columns and labels:
[1] = system: passive cutaneous anaphylaxis (PCA); assay: Inhibition of passive cutaneous anaphylaxis (PCA) in rats; format: in vivo, Sprague-Dawley rats; conditions: Rattus norvegicus, 1 h, 2 × 10^-5 mole/kg per os, one hour before ovalbumin challenge
Description: (§1) 1. Determining Inhibition of Passive Cutaneous Anaphylaxis (PCA) and Histamine-Induced Anaphylactoid Cutaneous Reaction
The PCA reaction is carried out following the methods described by Goose et al. (J. N. Immunology 16 (1969), 749) and by Martin et al. (Arch. Pharmacol. 316 (1981), 186).
The IgE-rich ovalbumin antiserum used in the test was obtained from immunized Brown-Norway rats. The were immunized with an intraperitoneal injection of a mixture of 100 μg of ovalbumin with a Bordetella pertussis suspension (Vaxicoq™, Manufactured by Institute Merieux, containing 5×10^9 organisms and 1.25 mg Al(OH)3). After 20 days the animals were re-immunized with a further intraperitoneal injection of a solution of 10 μg ovalbumin in 0.5 ml physiological saline solution. After a further four days the blood was removed from the animals and centrifuged. The resulting antiserum was stored at -20° C. until use.
(§2) The inhibition of the passive cutaneous anaphylaxis and of the anaphylactoid cutaneous reaction induced by histamine was determined as follows:
(§3) Sprague-Dawley rats having a body weight of 150-180 g were injected intradermally in one flank with 50 μl of a 1:75 dilution of the IgE-rich ovalbumin antiserum in physiological saline solution to passively sensitize them to ovalbumin.
(§4) 24 hours after sensitization a solution of 8.25 mg/kg of ovalbumin and 26.4 mg/kg of a blue dye (Evans's Blue) was administered to the rats intravenously according to Martin et al. to trigger passive cutaneous anaphylaxis.
(§5) On the day of the experiment the test substances were dissolved in distilled water which contained 1 vol. % dimethylformamide and 1 vol. % of Tween™ 20 (=polyoxyethylene (20) sorbitan monolaurate). One hour before administration of the ovalbumin challenge, each animal was orally administered 2×10^-5 mole/kg of test substance in 0.5 ml of solution. For comparison purposes a control group received only the solvent.
(§6) The edematous anaphylactic (PCA) and anaphylactoid (histamine-induced) reactions caused by the stimulation of the intravenous ovalbumin injection, which manifested themselves by edema formation, swelling and exudation of blue dye, were evaluated 30 minutes after their initiation by the intravenous ovalbumin injection. This was done by visually determining the extent to which the blue dye emerged at the sites of edema formation. The percentage inhibition of anaphylactic and anaphylactoid reactions induced by the test substances in comparison with the reactions of the control animals not treated with any test substance was determined using comparison scales.
(§7) The results obtained using compounds of formula I according to the foregoing test methods are shown in the following Table A. The example numbers given for the compounds of formula I relate to the subsequent preparative examples.

[2] = system: histamine-induced anaphylactoid cutaneous reaction; assay: Inhibition of histamine-induced anaphylactoid cutaneous reaction in rats; format: in vivo, Sprague-Dawley rats; conditions: Rattus norvegicus, 1 h, 2 × 10^-5 mole/kg per os, one hour before ovalbumin challenge
Description: as §1, §2, §3, §4
To determine the histamine-induced anaphylactoid skin reaction, the animals are injected intradermally in the flank opposite to the antiserum administration with 50 μl of a physiological saline solution containing 0.8 mg/ml histamine directly before the intravenous injection of the solution containing the ovalbumin and the blue dye.
as §5, §6, §7

Structure (SMILES): Cc1ccnc(N2CCN(CCCC3Oc4ccccc4NC3=O)CC2)c1 (stereo not drawn) [Example 9]
- inhibition in vivo at 20 µmol/kg [1]: 60%
- inhibition in vivo at 20 µmol/kg [2]: 30%

Structure (SMILES): Cc1ccnc(N2CCN(CCCC3Sc4ccccc4NC3=O)CC2)c1 (stereo not drawn) [Example 8]
- inhibition in vivo at 20 µmol/kg [1]: 73%
- inhibition in vivo at 20 µmol/kg [2]: 60%

Structure (SMILES): Cc1ccnc(N2CCN(CCCCC3Sc4ccccc4NC3=O)CC2)c1 (stereo not drawn) [Example 1, 2-{4-[4-(4-methylpyridin-2-yl)-piperazin-1-yl]butyl}-2H-1,4-benzothiazine-3(4H)-one]
- inhibition in vivo at 20 µmol/kg [1]: 88%
- inhibition in vivo at 20 µmol/kg [2]: 55%

Structure (SMILES): Cc1ccnc(N2CCN(CCCCC3Oc4ccccc4NC3=O)CC2)c1 (stereo not drawn) [Example 7]
- inhibition in vivo at 20 µmol/kg [1]: 70%
- inhibition in vivo at 20 µmol/kg [2]: 40%

Structure (SMILES): O=C1Nc2ccccc2SC1CCCN1CCN(c2ccc(Cl)cn2)CC1 (stereo not drawn) [Example 15]
- inhibition in vivo at 20 µmol/kg [1]: 60%
- inhibition in vivo at 20 µmol/kg [2]: 30%

Structure (SMILES): Cc1ccnc(N2CCN(CCCC3Sc4ccccc4NC3=S)CC2)c1 (stereo not drawn) [Example 11]
- inhibition in vivo at 20 µmol/kg [1]: 55%
- inhibition in vivo at 20 µmol/kg [2]: 20%

Source: patent publication US5332733A, “Heterocyclically substituted piperazinoakylbenzoxazine and piperazinoalkylbenzothiazine compounds, processes for preparing them, and medicaments containing them” (Kali-Chemie Pharma GmbH, priority 1990, dated 1994)
